The test system of one assay is PDE3. The experiment in a line: HTS drug screening for PDE3 (PDELight HTS cAMP Phosphodiesterase Kit, luminescence). The class given is biochemical. To be noted: compared with conventional drugs. The procedure:
For drug screening, high-throughput screening (HTS) was used.
In addition, as described above, in the present invention, to screen materials for treating neurodegenerative diseases such as Alzheimer's disease and Lou Gehrig's disease, among PDE isoforms, PDE3 was selected as a target, and an optimized concentration to be used in the experiment was selected to construct a drug screening system as shown in FIG. 9.
Compounds included in the library of 800 FDA-approved drugs were diluted 1/4 from a concentration of 100 μM and dispensed into each well in 96-well plates, and mixed with a PDE reactant to allow a PDE reaction with the drug for 1 hour at a constant temperature.
For drug efficacy screening for PDE inhibition, HTS was used. cAMP-based screening was conducted with an FDA-approved drug library and a Selleckchem library based on the conventional PDE inhibitor. The experiment was carried out in the same manner as used in screening of the FDA-approved drug library. Compared with cilostazol, which is known as a PDE3 inhibitor, drugs with high inhibitory activity were selected. […] After a stop solution was mixed with a AMP detection agent, the mixture was dispensed at 20 μl per well to allow a reaction for 10 minutes, followed by immediately measuring luminescence, and the experiment was performed according to a protocol provided by the kit used herein.

For the next assay, the system named is cathepsin L. Nature of the assay: Lysosomal function activity in astrocytes: degree of hydrolysis of cathepsin L. To be noted: bafilomycin A1-treated mouse astrocytes. The class given is cell-based, mouse. The procedure: Samples stained with enzymatic dyes such as cathepsin B and cathepsin L were administered into the cell culture to allow a reaction for 30 minutes, and changes in activity of lysosomes in cells were confirmed using a confocal microscope.
Astrocytes were stained with a fluorescence-tagged lysosomal protein, and the degrees of hydrolysis of cathepsin B and cathepsin L, which are lysosomal proteins, were analyzed.
FIG. 21 is a set of time-dependent confocal microscope images of mouse astrocytes, which are treated with bafilomycin A1, which is a vATPase inhibitor, to assess the degree of hydrolysis of cathepsin B (top) and cathepsin L (bottom).

For another assay, the system named is G93A SOD-1 mice. The experiment in a line: Survival rate and motor behaviour in Lou Gehrig's disease animal model. It counts as in vivo, mouse. The source says: G93A SOD-1 mice in which a mutant protein of the ALS-related gene SOD-1 (the expression of an amino acid at codon 93, in which glycine is substituted with alanine) of a human were used as Lou Gehrig's disease animal models. The G93A SOD-1 mice were purchased by the Jackson Laboratory (USA).
In the animal models of Lou Gehrig's disease, spinal motor neuron death occurs, causing limb paralysis at one or both sides. The clinical scoring system was differentiated using the following neurological scoring system.
The mice were euthanized at 0 points (Weydt et al. 2003). In the Lou Gehrig's disease animal models, which is one of the neurodegenerative disease models, a vehicle or amlexanox (AMX) was intraperitoneally administered at 2.5 mg/kg once daily for 5 days, and then a survival rate was measured through a behavioral experiment.
The behavioral experiment was performed on each of the AMX-administered group and the control (Veh) once or twice a week before symptoms occur until death. A method of gradually increasing a speed from 4 rpm to 40 rpm and a method of exercising at a constant speed of 15 rpm for 10 minutes were selected. The time to fall off from a rod was recorded to analyze the difference between the AMX-administered group and the control group.
Changes in survival rate were confirmed by intraperitoneal injection into G93A-SOD mice daily at various AMX concentrations.

Where [1] appears, read: G93A-SOD mice, AMX at various concentrations, compared with untreated control.

SMILES strings stand for the structures. Bounds are passed on as bounds.

Turning to `CC(C)c1ccc2oc3nc(N)c(C(=O)O)cc3c(=O)c2c1` [amlexanox, 2-amino-7-isopropyl-5-oxo-5H-[1]benzopyrano[2,3-b] pyridine-3-carboxylic acid], in the assay with PDE3, the “inhibitory effect specific for PDE3” value was “significant inhibitory effect”. For the same compound, in the assay with cathepsin L, the “time to restore lysosomal activity of cathepsin L to the original state” value was ≤ 60 min. In the assay on G93A SOD-1 mice (G93A SOD-1 mice, 2.5 mg/kg intraperitoneal once daily 5 days a week from week 10), the survival rate amounted to 130.2 ± 2.0 days. In the assay with G93A SOD-1 mice (setting [1]), the onset of ataxia result is “slower” and the progression of ataxia entry was “reduced”. The survival rate entry in the assay on G93A SOD-1 mice (G93A-SOD mice, daily intraperitoneal injection at various AMX concentrations, compared with Veh group) is given as “concentration-dependently increased”.

The record behind these values is patent publication US20210220340A1, “COMPOSITION FOR PREVENTION OR TREATMENT OF NEURODEGENERATIVE DISEASE” (THE ASAN FOUNDATION, priority 2018, published 2021).
